pIC50: −log10 of the molar value.

The pIC50 is the negative decadic logarithm of the IC50, by convention in mol/L. Usually IC50 stands for the concentration at which inhibition is half-maximal.

This experiment deals with T1, Nav1.7 (or SCN9A) channel; HEK cells stably transfected with hSCN9A (Homo sapiens, UniProt Q15858).
T1 construct: expressed in transfected cells
The experiment can be described thus: Nav1.7 block, PatchXpress 7000 automated whole-cell voltage clamp, estimated IC50 (EIC50). The class given is cell-based. Conditions: estimated IC50; hSCN9A HEK cells, PatchXpress platform; Examples 283-814.

T1 sequence (Q15858 whole entry): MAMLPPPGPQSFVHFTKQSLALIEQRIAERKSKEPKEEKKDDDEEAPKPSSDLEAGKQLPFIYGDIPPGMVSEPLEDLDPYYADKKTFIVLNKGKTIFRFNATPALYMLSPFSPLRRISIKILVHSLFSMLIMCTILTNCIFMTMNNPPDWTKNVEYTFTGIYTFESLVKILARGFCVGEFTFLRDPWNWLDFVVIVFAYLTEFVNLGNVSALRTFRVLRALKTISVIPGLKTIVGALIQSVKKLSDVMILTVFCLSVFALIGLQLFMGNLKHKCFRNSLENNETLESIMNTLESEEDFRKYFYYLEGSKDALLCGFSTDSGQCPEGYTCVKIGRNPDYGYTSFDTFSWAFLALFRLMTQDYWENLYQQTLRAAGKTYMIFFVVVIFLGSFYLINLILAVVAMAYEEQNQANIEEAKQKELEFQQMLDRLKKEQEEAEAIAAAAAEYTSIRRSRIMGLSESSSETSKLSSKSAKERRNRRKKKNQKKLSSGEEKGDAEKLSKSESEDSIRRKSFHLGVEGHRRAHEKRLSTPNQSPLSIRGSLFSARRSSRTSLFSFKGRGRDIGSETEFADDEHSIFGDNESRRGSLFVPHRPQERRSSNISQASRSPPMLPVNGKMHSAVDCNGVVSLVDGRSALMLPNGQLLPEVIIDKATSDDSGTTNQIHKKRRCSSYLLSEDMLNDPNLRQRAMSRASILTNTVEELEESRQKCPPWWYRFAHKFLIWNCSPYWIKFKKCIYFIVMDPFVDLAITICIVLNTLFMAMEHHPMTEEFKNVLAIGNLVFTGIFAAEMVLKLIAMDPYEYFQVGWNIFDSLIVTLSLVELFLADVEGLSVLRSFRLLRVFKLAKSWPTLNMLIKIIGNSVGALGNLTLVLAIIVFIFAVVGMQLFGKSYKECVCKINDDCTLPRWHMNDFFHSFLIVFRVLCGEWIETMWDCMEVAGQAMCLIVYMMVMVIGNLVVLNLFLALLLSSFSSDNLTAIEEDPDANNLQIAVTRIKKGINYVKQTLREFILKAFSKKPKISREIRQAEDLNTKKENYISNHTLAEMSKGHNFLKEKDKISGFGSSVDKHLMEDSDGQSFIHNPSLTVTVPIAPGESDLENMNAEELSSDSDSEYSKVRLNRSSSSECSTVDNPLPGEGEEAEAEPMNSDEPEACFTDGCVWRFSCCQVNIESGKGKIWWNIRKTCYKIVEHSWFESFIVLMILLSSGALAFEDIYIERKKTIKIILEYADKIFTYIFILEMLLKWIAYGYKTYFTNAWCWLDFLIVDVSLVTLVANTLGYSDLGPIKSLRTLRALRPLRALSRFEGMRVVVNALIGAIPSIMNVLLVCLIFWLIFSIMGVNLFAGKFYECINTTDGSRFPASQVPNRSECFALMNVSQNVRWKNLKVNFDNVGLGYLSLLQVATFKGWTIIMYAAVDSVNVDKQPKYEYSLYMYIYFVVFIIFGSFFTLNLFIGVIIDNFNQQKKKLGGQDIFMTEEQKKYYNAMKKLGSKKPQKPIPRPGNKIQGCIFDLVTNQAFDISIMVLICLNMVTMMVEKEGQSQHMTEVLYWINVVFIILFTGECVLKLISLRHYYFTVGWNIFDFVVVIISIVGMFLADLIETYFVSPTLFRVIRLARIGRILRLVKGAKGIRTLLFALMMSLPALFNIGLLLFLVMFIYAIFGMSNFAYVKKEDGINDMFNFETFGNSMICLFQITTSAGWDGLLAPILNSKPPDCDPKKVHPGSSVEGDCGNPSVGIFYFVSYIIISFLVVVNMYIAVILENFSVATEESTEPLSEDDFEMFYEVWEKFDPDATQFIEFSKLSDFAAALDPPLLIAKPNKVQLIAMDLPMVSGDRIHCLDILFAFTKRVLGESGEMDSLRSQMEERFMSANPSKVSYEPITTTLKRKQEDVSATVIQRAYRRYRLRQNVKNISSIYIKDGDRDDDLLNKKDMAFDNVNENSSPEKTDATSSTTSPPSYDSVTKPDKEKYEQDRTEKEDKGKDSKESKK

In the case of `N#Cc1cc(S(=O)(=O)Nc2nccs2)ccc1Oc1cccc(-n2nc(C(F)F)cc2CO)c1` [Example 390, 3-cyano-4-{3-[3-(difluoromethyl)-5-(hydroxymethyl)-1H-pyrazol-1-yl]phenoxy}-N-1,3-thiazol-2-ylbenzenesulfonamide], the pIC50 was 6.52.
For `N#Cc1cc(S(=O)(=O)Nc2nccs2)ccc1Oc1ccc(I)cc1-c1ccn[nH]1` [Example 391, 3-cyano-4-[4-iodo-2-(1H-pyrazol-5-yl)phenoxy]-N-1,3-thiazol-2-ylbenzenesulfonamide], the pIC50 is 8.60.
Take `N#Cc1cc(S(=O)(=O)Nc2cscn2)ccc1Oc1ccc(Cl)cc1-c1ccnc(N)c1` [Example 392, 4-[2-(2-aminopyridin-4-yl)-4-chlorophenoxy]-3-cyano-N-1,3-thiazol-4-ylbenzenesulfonamide]: the pIC50 is 6.85.
Same read-out and setting: as for `N#Cc1cc(S(=O)(=O)Nc2cscn2)ccc1Oc1ccc(Cl)cc1-c1cn[nH]c1N` [Example 393, 4-[2-(5-amino-1H-pyrazol-4-yl)-4-chlorophenoxy]-3-cyano-N-1,3-thiazol-4-ylbenzenesulfonamide], the figure is 6.00; as for `N#Cc1cc(S(=O)(=O)Nc2cscn2)ccc1Oc1ccc(Cl)cc1-c1cnn(C(F)F)c1` [Example 394, 4-{4-chloro-2-[1-(difluoromethyl)-1H-pyrazol-4-yl]phenoxy}-3-cyano-N-1,3-thiazol-4-ylbenzenesulfonamide], 5.54; as for `Cn1nc(C(F)(F)F)cc1-c1cc(Cl)ccc1Oc1ccc(S(=O)(=O)Nc2cscn2)cc1C#N` [Example 395, 4-{4-chloro-2-[1-methyl-3-(trifluoromethyl)-1H-pyrazol-5-yl]phenoxy}-3-cyano-N-1,3-thiazol-4-ylbenzenesulfonamide], 5.74.
As for `CC(C)Oc1cc(-c2cc(F)ccc2Oc2ccc(S(=O)(=O)Nc3cscn3)cc2C#N)n(C)n1` [Example 396, 3-cyano-4-[4-fluoro-2-(3-isopropoxy-1-methyl-1H-pyrazol-5-yl)phenoxy]-N-1,3-thiazol-4-ylbenzenesulfonamide], the IC50 is given as more than 3 µM.
With `N#Cc1cc(S(=O)(=O)Nc2cscn2)ccc1Oc1ccc(Cl)cc1-n1cnc(C(F)(F)F)c1` [Example 397, 4-{4-chloro-2-[4-(trifluoromethyl)-1H-imidazol-1-yl]phenoxy}-3-cyano-N-1,3-thiazol-4-ylbenzenesulfonamide], the IC50 was more than 1 µM.
Same read-out and setting: then `N#Cc1cc(S(=O)(=O)Nc2cscn2)ccc1Oc1ccc(Cl)cc1-c1ccn(C(F)(F)F)n1` [Example 398, 4-{4-chloro-2-[1-(trifluoromethyl)-1H-pyrazol-3-yl]phenoxy}-3-cyano-N-1,3-thiazol-4-ylbenzenesulfonamide], with more than 1 µM.
For `N#Cc1cc(S(=O)(=O)Nc2cscn2)ccc1Oc1ccc(Cl)cc1-c1ccnn1C(F)(F)F` [Example 399, 4-{4-chloro-2-[1-(trifluoromethyl)-1H-pyrazol-5-yl]phenoxy}-3-cyano-N-1,3-thiazol-4-ylbenzenesulfonamide], the pIC50 was 5.92.
The same measure, in the same setting: then `Cn1nccc1-c1ccccc1Oc1ccc(S(=O)(=O)Nc2cscn2)cc1C#N` [Example 400, 3-cyano-4-[2-(1-methyl-1H-pyrazol-5-yl)phenoxy]-N-1,3-thiazol-4-ylbenzenesulfonamide], with 5.92; and `CCn1nc(C(F)(F)F)cc1-c1ccc(Oc2ccc(S(=O)(=O)Nc3cscn3)cc2C#N)cc1` [Example 401, 3-cyano-4-{4-[1-ethyl-3-(trifluoromethyl)-1H-pyrazol-5-yl]phenoxy}-N-1,3-thiazol-4-ylbenzenesulfonamide], with 5.57.
As for `N#Cc1cc(S(=O)(=O)Nc2cscn2)ccc1Oc1ccc(Cl)cc1-c1ccnn1C(F)F` [Example 402, 4-{4-chloro-2-[1-(difluoromethyl)-1H-pyrazol-5-yl]phenoxy}-3-cyano-N-1,3-thiazol-4-ylbenzenesulfonamide], the pIC50 was 6.60.
The same measure, in the same setting: then `Nc1cccc(-c2cc(Cl)ccc2Oc2cc(F)c(S(=O)(=O)Nc3ncns3)cc2Cl)n1` [Example 403, 4-[2-(6-aminopyridin-2-yl)-4-chlorophenoxy]-5-chloro-2-fluoro-N-1,2,4-thiadiazol-5-ylbenzenesulfonamide], with 8.35; and `CCn1nc(C(F)(F)F)cc1-c1ccc(Oc2cc(F)c(S(=O)(=O)Nc3ccc(F)cn3)cc2Cl)cc1` [Example 404, 5-chloro-4-{4-[1-ethyl-3-(trifluoromethyl)-1H-pyrazol-5-yl]phenoxy}-2-fluoro-N-(5-fluoropyridin-2-yl)benzenesulfonamide], with 5.92; and `Nc1cc(-c2cc(F)ccc2Oc2cc(F)c(S(=O)(=O)Nc3ncns3)cc2Cl)ccn1` [Example 405, 4-[2-(2-aminopyridin-4-yl)-4-fluorophenoxy]-5-chloro-2-fluoro-N-1,2,4-thiadiazol-5-ylbenzenesulfonamide], with 8.57.
As for `Cn1ncnc1-c1cc(Cl)ccc1Oc1ccc(S(=O)(=O)Nc2nccs2)cc1F` [Example 406, 4-[4-chloro-2-(1-methyl-1H-1,2,4-triazol-5-yl)phenoxy]-3-fluoro-N-1,3-thiazol-2-ylbenzenesulfonamide], the pIC50 was 5.52.
With `Nc1cccc(-c2cc(F)ccc2Oc2cc(F)c(S(=O)(=O)Nc3ncns3)cc2F)n1` [Example 407, 4-[2-(6-aminopyridin-2-yl)-4-fluorophenoxy]-2,5-difluoro-N-1,2,4-thiadiazol-5-ylbenzenesulfonamide], the pIC50 is 6.72.
With `CCn1nc(C(F)(F)F)cc1-c1ccc(Oc2ccc(S(=O)(=O)Nc3nccs3)cc2F)cc1` [Example 408, 4-{4-[1-ethyl-3-(trifluoromethyl)-1H-pyrazol-5-yl]phenoxy}-3-fluoro-N-1,3-thiazol-2-ylbenzenesulfonamide], the pIC50 was 6.52.
Regarding `Nc1cccc(-c2cc(Cl)ccc2Oc2cc(F)c(S(=O)(=O)Nc3ncns3)cc2F)n1` [Example 409, 4-[2-(6-aminopyridin-2-yl)-4-chlorophenoxy]-2,5-difluoro-N-1,2,4-thiadiazol-5-ylbenzenesulfonamide], the pIC50 was 7.72.
As to `Nc1ccc(-c2cc(Cl)ccc2Oc2cc(F)c(S(=O)(=O)Nc3ncns3)cc2F)cn1` [Example 410, 4-[2-(6-aminopyridin-3-yl)-4-chlorophenoxy]-2,5-difluoro-N-1,2,4-thiadiazol-5-ylbenzenesulfonamide], the pIC50 was 7.54.
As to `Nc1ccc(-c2cc(Cl)ccc2Oc2cc(F)c(S(=O)(=O)Nc3ncns3)cc2F)nc1` [Example 411, 4-[2-(5-aminopyridin-2-yl)-4-chlorophenoxy]-2,5-difluoro-N-1,2,4-thiadiazol-5-ylbenzenesulfonamide], the pIC50 is 6.27.
The same measure, in the same setting: then `O=S(=O)(Nc1ncns1)c1cc(Cl)c(Oc2ccc(OC(F)F)cc2C2CCNCC2)cc1F` [Example 412, 5-chloro-4-[4-(difluoromethoxy)-2-piperidin-4-ylphenoxy]-2-fluoro-N-1,2,4-thiadiazol-5-ylbenzenesulfonamide], with 8.60; and `Cn1nccc1-c1cc(Cl)ccc1Oc1ccc(S(=O)(=O)Nc2ncsc2Cl)cc1C#N` [Example 413, 4-[4-chloro-2-(1-methyl-1H-pyrazol-5-yl)phenoxy]-N-(5-chloro-1,3-thiazol-4-yl)-3-cyanobenzenesulfonamide], with 4.92; and `Cn1cc(-c2cc(Cl)ccc2Oc2ccc(S(=O)(=O)Nc3cscn3)cc2C#N)cn1` [Example 414, 4-[4-chloro-2-(1-methyl-1H-pyrazol-4-yl)phenoxy]-3-cyano-N-1,3-thiazol-4-ylbenzenesulfonamide], with 6.00.
As to `N#Cc1cc(S(=O)(=O)Nc2cscn2)ccc1Oc1ccc(F)cc1-c1cnn(CC(F)(F)F)c1` [Example 415, 4-{4-fluoro-2-[1-(2,2,2-trifluoroethyl)-1H-pyrazol-4-yl]phenoxy}-3-cyano-N-1,3-thiazol-4-ylbenzenesulfonamide], the IC50 is given as more than 1 µM.
Take `N#Cc1cc(S(=O)(=O)Nc2nccs2)ccc1Oc1ccc(Cl)cc1-n1cnnn1` [Example 416, 4-(4-chloro-2-(1H-tetrazol-1-yl)phenoxy)-3-cyano-N-(thiazol-2-yl)benzenesulfonamide]: the pIC50 was 5.80.
In the case of `N#Cc1cc(S(=O)(=O)Nc2cscn2)ccc1Oc1ccc(Cl)c(Cn2ccnc2)c1` [Example 418, 4-[4-chloro-3-(1H-imidazol-1-ylmethyl)phenoxy]-3-cyano-N-1,3-thiazol-4-ylbenzenesulfonamide], the pIC50 is 5.64.
With `CC(C)(C)n1cc(Cc2cccc(Oc3ccc(S(=O)(=O)Nc4cscn4)cc3C#N)c2)cn1` [Example 419, 4-{3-[(1-tert-butyl-1H-pyrazol-4-yl)methyl]phenoxy}-3-cyano-N-1,3-thiazol-4-ylbenzenesulfonamide], the negative logarithm of the IC50 (pIC50) was 5.68.
The same measure, in the same setting: as for `N#Cc1cc(S(=O)(=O)Nc2ncccc2F)ccc1Oc1ccccc1-c1ccccc1` [Example 420, 4-(biphenyl-2-yloxy)-3-cyano-N-(3-fluoropyridin-2-yl)benzenesulfonamide], the figure is 4.62; as for `N#Cc1cccc(NS(=O)(=O)c2ccc(Oc3ccccc3-c3ccccc3)c(C#N)c2)n1` [Example 421, 4-(biphenyl-2-yloxy)-3-cyano-N-(6-cyanopyridin-2-yl)benzenesulfonamide], 4.92.
Take `N#Cc1ccnc(NS(=O)(=O)c2ccc(Oc3ccccc3-c3ccccc3)c(C#N)c2)c1` [Example 422, 4-(biphenyl-2-yloxy)-3-cyano-N-(4-cyanopyridin-2-yl)benzenesulfonamide]: the IC50 is more than 1 µM.
Same read-out and setting: then `Cc1ccc(NS(=O)(=O)c2ccc(Oc3ccccc3-c3ccccc3)c(C#N)c2)nc1` [Example 424, 4-(biphenyl-2-yloxy)-3-cyano-N-(5-methylpyridin-2-yl)benzenesulfonamide], with more than 3 µM.
With `Cc1ccnc(NS(=O)(=O)c2ccc(Oc3ccccc3-c3ccccc3)c(C#N)c2)n1` [Example 425, 4-(biphenyl-2-yloxy)-3-cyano-N-(4-methylpyrimidin-2-yl)benzenesulfonamide], the pIC50 was 4.96.
The same measure, in the same setting: as for `N#Cc1cc(S(=O)(=O)Nc2cnc(Cl)nc2)ccc1Oc1ccccc1-c1ccccc1` [Example 426, 4-(biphenyl-2-yloxy)-N-(2-chloropyrimidin-5-yl)-3-cyanobenzenesulfonamide], the figure is 4.44.

The values are drawn from US8541588B2, “Sulfonamide derivatives” (Pfizer Limited, priority 2009, dated 2013).
